Measurements as given in ChEMBL document CHEMBL2057158, “Synthesis and cytotoxic activity of 4-N-carboxybutyl-5-fluorocytosyl-Arg-Gln-Trp-Arg-Arg-Trp-Trp-Gln-Arg-NH₂” (Bioorg Med Chem Lett, 2012).
Active and inactive are the calls of the source.

Experiments:
Format in all cases: functional, cell-based
HepG2 [1] = experiment: Cytotoxicity against human HepG2 cells at 4 to 10 mM after 24 hrs by MTT assay
HepG2 [2] = experiment: Cytotoxicity in human HepG2 cells assessed as alteration of mitochondrial membrane potential by TMRM-fluorescence based high content screening assay
HepG2 [3] = experiment: Cytotoxicity in human HepG2 cells assessed as elevation of intracellular calcium concentration by Fluo4AM-fluorescence based high content screening assay
HepG2 [4] = experiment: Induction of apoptosis in human HepG2 cells assessed as morphological nuclear changes by Hoechst33342-staining based high content screening assay

Measured: Activity

Nc1nc(=O)[nH]cc1F
inactive: all assays above
